According to patent publication US20240109891A1, “NOVEL SUBSTITUTED TRICYCLIC AZA-HETEROCYCLES AS SOS1 INHIBITORS” (Viva Star Biosciences (Suzhou) Co., Ltd., priority 2021, published 2024):

Key:
[1] = molecular target: T1, KRAS G12D and SOS1 proteins (Homo sapiens, UniProt Q07889); assay: KRAS-G12D/SOS1 binding assay (HTRF); conditions: Tag1-SOS1 / Tag2-KRAS G12D, 10 μM GTP
T1 construct: purchased Cisbio 63ADK000CB17PEG
T1 sequence (Q07889 1-1333): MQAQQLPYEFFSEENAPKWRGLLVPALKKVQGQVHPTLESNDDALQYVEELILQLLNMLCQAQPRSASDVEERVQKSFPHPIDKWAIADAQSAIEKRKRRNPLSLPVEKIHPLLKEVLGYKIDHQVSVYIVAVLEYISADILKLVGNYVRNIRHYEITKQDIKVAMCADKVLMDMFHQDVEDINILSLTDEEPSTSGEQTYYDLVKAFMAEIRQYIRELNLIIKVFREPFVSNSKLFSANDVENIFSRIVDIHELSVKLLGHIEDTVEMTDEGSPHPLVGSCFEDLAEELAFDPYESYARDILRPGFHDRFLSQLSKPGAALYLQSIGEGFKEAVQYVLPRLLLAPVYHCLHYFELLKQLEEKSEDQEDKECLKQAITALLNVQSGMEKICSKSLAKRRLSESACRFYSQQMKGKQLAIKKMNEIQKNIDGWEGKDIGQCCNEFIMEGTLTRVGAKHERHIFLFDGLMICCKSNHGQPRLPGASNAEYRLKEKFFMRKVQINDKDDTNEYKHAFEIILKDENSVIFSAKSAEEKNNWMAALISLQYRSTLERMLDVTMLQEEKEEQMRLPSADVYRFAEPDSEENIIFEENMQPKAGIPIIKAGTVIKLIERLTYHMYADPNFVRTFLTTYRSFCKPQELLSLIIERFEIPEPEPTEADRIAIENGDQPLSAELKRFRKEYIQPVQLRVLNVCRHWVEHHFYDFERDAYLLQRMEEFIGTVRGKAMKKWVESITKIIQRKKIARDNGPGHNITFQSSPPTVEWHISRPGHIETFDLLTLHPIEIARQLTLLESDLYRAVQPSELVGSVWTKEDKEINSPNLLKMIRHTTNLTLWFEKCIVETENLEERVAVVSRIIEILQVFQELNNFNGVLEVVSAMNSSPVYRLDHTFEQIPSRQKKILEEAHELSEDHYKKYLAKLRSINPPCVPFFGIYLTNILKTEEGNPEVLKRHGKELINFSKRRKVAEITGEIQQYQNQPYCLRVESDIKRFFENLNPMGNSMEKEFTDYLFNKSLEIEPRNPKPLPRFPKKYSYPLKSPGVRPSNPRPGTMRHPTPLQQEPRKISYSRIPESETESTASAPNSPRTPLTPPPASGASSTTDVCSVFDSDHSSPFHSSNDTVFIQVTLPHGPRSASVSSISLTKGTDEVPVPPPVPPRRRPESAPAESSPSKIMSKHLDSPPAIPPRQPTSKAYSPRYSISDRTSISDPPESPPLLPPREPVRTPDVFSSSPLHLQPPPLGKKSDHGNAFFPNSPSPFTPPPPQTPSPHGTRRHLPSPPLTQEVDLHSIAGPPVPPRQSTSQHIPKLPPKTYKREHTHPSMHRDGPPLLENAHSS
Procedure: (§1) KRAS-WT (or G12C/G12D/G12V)/SOS1 Binding Assay
(§2) Low IC50 values are indicative of high potency of the SOS1 inhibitor compounds in this assay setting.
(§3) The KRAS-WT (or G12C/G12D/G12V)/SOS1 binding assay is performed using an assay kit (Cisbio, Cat #63ADK000CB15PEG or 63ADK000CB16PEG/63ADK000CB17PEG/63ADK000CB18PEG) according to the procedure recommended by the manufacturer. • 1) Thaw and prepare the working solution of Tag1-SOS1 protein and Tag2-KRAS-WT (or G12C/G12D/G12V) protein with final concentration of 10 μM GTP (Sigma, Cat #V900868). • 2) Thaw and prepare the working solution of anti-Tag1-Tb^3+ anti-Tag2-XL665. • 3) Dispense 2 μL of serially diluted compound, 4 μL of Tag1-SOS1 protein and 4 μL of Tag2-KRAS-WT (or G12C/G12D/G12V) protein with GTP into a ProxiPlate-384 Plus, white 384-shallow well microplate (PerkinElmer, Cat #6008280). • 4) Incubate the plate for 15 minutes at room temperature. • 5) Dispense 10 μL of pre-mixed anti-Tag1-Tb^3+ and anti-Tag2-XL665 into the plate. • 6) Seal the plate and incubate for 2 hours at room temperature. • 7) Remove the plate sealer and read on PHERAstar FS (BMG LABTECH, PHERAstar FS). • 8) Calculate the ratio of the acceptor and donor emission signals for each individual well using the following equation.
(§4) [formula] • 9) IC50 values are fitted and calculated by HTRF signal values and log of compound concentrations to nonlinear regression [Log (inhibitor) vs. Response−Variable Slope (four parameters)] using the GraphPad Prism 8.0.

[2] = molecular target: T2, KRAS-WT and SOS1 proteins (Homo sapiens, UniProt Q07889); assay: KRAS-WT/SOS1 binding assay (HTRF); conditions: Tag1-SOS1 / Tag2-KRAS-WT, 10 μM GTP, read-out: Activity Data in Kras: SOS1 Assay, Wild Type
T2 construct: purchased Cisbio 63ADK000CB15PEG
T2 sequence (Q07889 1-1333): T1 sequence (Q07889 1-1333)
Procedure: as §1, §2, §3, §4

SMILES | IC50 [1] [nM] | IC50 [2] [nM]
Cc1nc(N[C@H](C)c2cccc(C(F)(F)CO)c2)c2cc([C@H]3CC[C@H](O)CC3)c3nncn3c2n1 [Example 16, Trans-(R)-4-(4-((1-(3-(1,1-difluoro-2-hydroxyethyl)phenyl)ethyl)amino)-2-methyl-[1,2,4]triazolo[4′,3′:1,6]pyrido[2,3-d]pyrimidin-6-yl)cyclohexan-1-ol] | < 100 | < 100
C[C@@H](Nc1nc2ccnn2c2cc(=O)n(C3(C)CC3)cc12)c1cccc2c1CCC2(F)F [Example 62, (R)-5-((1-(1,1-difluoro-2,3-dihydro-1H-inden-4-yl)ethyl)amino)-7-(1-methylcyclopropyl)pyrazolo[1,5-a]pyrido[3,4-e]pyrimidin-8(7H)-one] | < 100 | < 100
Cc1nc(N[C@H](C)c2cccc(C(F)(F)CO)c2)c2cc(O[C@H]3CCN(C)C3)c3c(cnn3C)c2n1 [Example 41, 2-(3-((R)-1-((2,7-dimethyl-6-(((S)-1-methylpyrrolidin-3-yl)oxy)-7H-pyrazolo[3,4-h]quinazolin-4-yl)amino)ethyl)phenyl)-2,2-difluoroethan-1-ol] | < 100 | < 100
Cc1nc(N[C@H](C)c2cccc(C(F)(F)CO)c2)c2cc(N3CC[C@@H](O)C3)c3c(cnn3C)c2n1 [Example 44, (3R)-1-(4-{[(1R)-1-[3-(1,1-difluoro-2-hydroxyethyl)phenyl]ethyl]amino}-2,7-dimethyl-7H-pyrazolo[3,4-h]quinazolin-6-yl)pyrrolidin-3-ol] | < 100 | < 100
C[C@@H](Nc1nc2ccnn2c2cc(=O)n([C@H]3CCOC3)cc12)c1cccc2c1CCC2(F)F [Example 71, 5-(((R)-1-(1,1-difluoro-2,3-dihydro-1H-inden-4-yl)ethyl)amino)-7-((S)-tetrahydrofuran-3-yl)pyrazolo[1,5-a]pyrido[3,4-e]pyrimidin-8(7H)-one] | < 100 | < 100
C[C@@H](Nc1nc2ccnn2c2cc(=O)n([C@H]3CCOC3)cc12)c1cccc(C(F)(F)CO)c1 [Example 72, 5-(((R)-1-(3-(1,1-difluoro-2-hydroxyethyl)phenyl)ethyl)amino)-7-((S)-tetrahydrofuran-3-yl)pyrazolo[1,5-a]pyrido[3,4-e]pyrimidin-8(7H)-one] | < 100 | < 100
CC(=O)N1CCC(n2cc3c(N[C@H](C)c4cccc(C(F)(F)CO)c4)nc4ccnn4c3cc2=O)CC1 [Example 75, 11-(1-acetylpiperidin-4-yl)-8-{[(1R)-1-[3-(1,1-difluoro-2-hydroxyethyl)phenyl]ethyl]amino}-2,3,7,11-tetraazatricyclo[7.4.0.0^{2,6}]trideca-1(13),3,5,7,9-pentaen-12-one] | < 100 | < 100
Cc1nc(N[C@H](C)c2cccc(C(F)(F)CO)c2)c2cc([C@H]3CC[C@@H](O)CC3)c3nncn3c2n1 [Example 15, Cis-(R)-4-(4-((1-(3-(1,1-difluoro-2-hydroxyethyl)phenyl)ethyl)amino)-2-methyl-[1,2,4]triazolo[4′,3′:1,6]pyrido[2,3-d]pyrimidin-6-yl)cyclohexan-1-ol] | < 100 | < 100
Cc1nc(N[C@H](C)c2cccc3c2CCC3(F)F)c2cc(O[C@H]3CCOC3)c3nncn3c2n1 [Example 19, N-((R)-1-(1,1-difluoro-2,3-dihydro-1H-inden-4-yl)ethyl)-2-methyl-6-(((S)-tetrahydrofuran-3-yl)oxy)-[1,2,4]triazolo[4′,3′:1,6]pyrido[2,3-d]pyrimidin-4-amine] | < 100 | < 100
Cc1nc(N[C@H](C)c2cccc(C(F)(F)F)c2)c2cc(OC3CCOC3)c3c(cnn3C)c2n1 (stereo partly drawn) [Example 35, 2,7-dimethyl-6-(oxolan-3-yloxy)-N-[(1R)-1-[3-(trifluoromethyl)phenyl]ethyl]-7H-pyrazolo[3,4-h]quinazolin-4-amine] | 100 to 500 | 100 to 500
COc1cc2c(cc1O[C@H]1CCOC1)c(N[C@H](C)c1cc(N)cc(C(F)(F)F)c1)nc1cncn12 [Example 57, N—((R)-1-(3-amino-5-(trifluoromethyl)phenyl)ethyl)-8-methoxy-7-(((S)-tetrahydrofuran-3-yl)oxy)imidazo[1,5-a]quinazolin-5-amine] | 100 to 500 | 100 to 500
Cc1nc(N[C@H](C)c2cccc(C(F)(F)CO)c2)c2cc(-c3ccc(=O)n(C)c3)c3[nH]ncc3c2n1 [Example 27, (R)-5-(4-((1-(3-(1,1-difluoro-2-hydroxyethyl)phenyl)ethyl)amino)-2-methyl-7H-pyrazolo[3,4-h]quinazolin-6-yl)-1-methylpyridin-2(1H)-one] | < 100 | < 100
Cc1nc(N[C@H](C)c2cc(N)cc(C(F)(F)F)c2)c2cc(O[C@H]3CCOC3)c3c(cnn3C)c2n1 [Example 37, N-((R)-1-(3-amino-5-(trifluoromethyl)phenyl)ethyl)-2,7-dimethyl-6-(((S)-tetrahydrofuran-3-yl)oxy)-7H-pyrazolo[3,4-h]quinazolin-4-amine] | < 100 | < 100
CC(=O)N1CCC(Oc2cc3c(N[C@H](C)c4cccc5c4CCC5(F)F)nc(C)nc3c3cnn(C)c23)CC1 [Example 40, (R)-1-(4-((4-((1-(1,1-difluoro-2,3-dihydro-1H-inden-4-yl)ethyl)amino)-2,7-dimethyl-7H-pyrazolo[3,4-h]quinazolin-6-yl)oxy)piperidin-1-yl)ethan-1-one] | < 100 | < 100
C[C@@H](Nc1nc2c(F)cnn2c2cc(=O)n(C3CC(F)(F)C3)cc12)c1cccc(C(F)(F)CO)c1 [Example 78, (R)-5-((1-(3-(1,1-difluoro-2-hydroxyethyl)phenyl)ethyl)amino)-7-(3,3-difluorocyclobutyl)-3-fluoropyrazolo[1,5-a]pyrido[3,4-e]pyrimidin-8(7H)-one] | < 100 | < 100
C[C@@H](Nc1nc2ccnn2c2cc(=O)n(C3CCN(C)CC3)cc12)c1cccc(C(F)(F)CO)c1 [Example 76, (R)-5-((1-(3-(1,1-difluoro-2-hydroxyethyl)phenyl)ethyl)amino)-7-(1-methylpiperidin-4-yl)pyrazolo[1,5-a]pyrido[3,4-e]pyrimidin-8(7H)-one] | < 100 | < 100
C[C@@H](Nc1nc2ccnn2c2cc(=O)n(C3CCN(S(C)(=O)=O)CC3)cc12)c1cccc(C(F)(F)CO)c1 [Example 67, (R)-5-((1-(3-(1,1-difluoro-2-hydroxyethyl)phenyl)ethyl)amino)-7-(1-(methylsulfonyl)piperidin-4-yl)pyrazolo[1,5-a]pyrido[3,4-e]pyrimidin-8(7H)-one] | 100 to 500 | < 100
